Assays:
[1] = system: patients with gastric cancer; assay: NHIRD statistical analysis of death/survival with vs without Amlodipine, gastric cancer; format: in vivo, human
Description: In this example, statistical analysis was performed on the statistics of the effects of Amlodipine in the treatment of cancers, using data from the National Health Insurance Research Database (NHIRD) covering detailed healthcare data for the population in Taiwan. Then, the diagnostic data at the time of admission in the database and the database of patients with registered major injuries were used, and statistical analysis was performed using data from patients with gastric cancer.
The dose of Amlodipine used in Example 1 was at least 120 mg/30 days. Therefore, in order to obtain the minimum effective dose, the survival rate of patients treated with Amlodipine for days in 90 days after cancer diagnosis was further statistically analyzed.

[2] = system: patients having pancreatic cancer; assay: NHIRD statistical analysis of death/survival with vs without Amlodipine, pancreatic cancer; format: in vivo, human
[3] = system: patients having breast cancer; assay: NHIRD statistical analysis of death/survival with vs without Amlodipine, breast cancer; format: in vivo, human
[4] = system: patients having cervical cancer; assay: NHIRD statistical analysis of death/survival with vs without Amlodipine, cervical cancer; format: in vivo, human
[5] = system: patients having bladder cancer; assay: NHIRD statistical analysis of death/survival with vs without Amlodipine, bladder cancer; format: in vivo, human
[6] = system: liver cancer cells Hep3B; assay: Cell cycle analysis by flow cytometry, Hep3B; format: cell-based
Description: Two liver cancer cell lines HepG2 and Hep3B were cultured. The medium used for the culture of the cells was DMEM medium containing 10% fetal bovine serum, 10,000 U/ml penicillin and 10,000 μg/ml streptomycin. The culture occurred in an environment at 37° C. with 5% CO2, and the medium was changed every 2-3 days during the culture. After the cells were cultured to about 70% confluence, they were treated with various concentrations of Amlodipine: 0, 1.5625, 3.125, 6.25, 12.5, 25, and 50 μM for various times: 48, and 72 hrs. After the experiment, the viability of each liver cancer cell line was observed and the cell viability and cell cycle were analyzed. The cell cycle of each liver cancer cell line treated under different conditions was analyzed by flow cytometry. […] Still further, each liver cancer cell line was treated with Amlodipine at a concentration of 12.5 μM for 0, 12, 24, 36 and 48 hrs, and the cell cycle was analyzed by flow cytometry.

[7] = system: HepG2 cells; assay: Cell viability (WST-1 72 hrs; PI flow cytometry 48 hrs), HepG2; format: cell-based
Description: Two liver cancer cell lines HepG2 and Hep3B were cultured. The medium used for the culture of the cells was DMEM medium containing 10% fetal bovine serum, 10,000 U/ml penicillin and 10,000 μg/ml streptomycin. The culture occurred in an environment at 37° C. with 5% CO2, and the medium was changed every 2-3 days during the culture. After the cells were cultured to about 70% confluence, they were treated with various concentrations of Amlodipine: 0, 1.5625, 3.125, 6.25, 12.5, 25, and 50 μM for various times: 48, and 72 hrs. After the experiment, the viability of each liver cancer cell line was observed and the cell viability and cell cycle were analyzed. The HepG2 and Hep3B cells treated with various concentrations of Amlodipine for 72 hrs were added to WST-1 reagent. After 330 minutes of reaction, the absorbance at a wavelength of 420-480 nm was measured. The HepG2 and Hep3B cells treated with various concentrations of Amlodipine for 48 hrs were scraped off with 0.05% Trypsin-EDTA, and then added to 2 mg/ml PI solution. The cell viability was analyzed by flow cytometry.

[8] = system: HepG2 cells; assay: Western blotting of apoptosis-related proteins, HepG2; format: cell-based; conditions: various concentrations, 24 hours
Description: The expression of apoptosis-related genes in each liver cancer cell line treated with various concentrations of Amlodipine for 24 hours were detected by Western blotting.

[9] = system: HepG2 cells; assay: Cell metastasis (Transwell, Calcein AM fluorescence), HepG2; format: cell-based; conditions: 10 μM, 48 or 72 hrs
Description: (§1) The HepG2 and Hep3B cells were separately cultured in an insert of the Transwell plate, then added with 10 μM Amlodipine and cultured for 48 or 72 hrs. The insert was placed in a serum-free DMEM medium containing […] Calcien AM. Fluorescent staining was carried out in a culture environment at 37° C. After about 45-60 min, the cells were scraped off with 0.05% Trypsin-EDTA, and the fluorescence intensity at a wavelength of 490 to 520 nm was measured.

[10] = system: Hep3B cells; assay: Cell metastasis (Transwell, Calcein AM fluorescence), Hep3B; format: cell-based; conditions: 10 μM, 48 or 72 hrs
Description: as §1

[11] = system: HepG2 cells; assay: Cell invasion (Transwell, crystal violet), HepG2; format: cell-based; conditions: 10 μM, 72 hrs
Description: (§2) The HepG2 and Hep3B cells were separately cultured in the insert of the Transwell plate, then added with 10 μM Amlodipine and cultured for 48 or 72 hrs. The cells on the inner surface of the insert were taken out, and the insert was placed in methanol and stained with a crystal violet solution. […] That is, Amlodipine is effective in slowing the progression of cancers, thereby achieving a therapeutic effect in the treatment of cancers.

[12] = system: Hep3B cells; assay: Cell invasion (Transwell, crystal violet), Hep3B; format: cell-based; conditions: 10 μM, 72 hrs
Description: as §2

[13] = 24/30: Amlodipine at least 24 days within 30 days after cancer diagnosis
[14] = 48/60: Amlodipine at least 48 days within 60 days after cancer diagnosis
[15] = 72/90: Amlodipine at least 72 days within 90 days after cancer diagnosis
[16] = Amlodipine for 20 days within 90 days after diagnosis
[17] = 12.5 μM Amlodipine, treatment time 12 hr
[18] = 12.5 μM Amlodipine, treatment time 24 hr
[19] = 12.5 μM Amlodipine, treatment time 36 hr
[20] = 12.5 μM Amlodipine, treatment time 48 hr

SMILES: CCOC(=O)C1=C(COCCN)NC(C)=C(C(=O)OC)C1c1ccccc1Cl (stereo not shown) [Amlodipine]
- Crude HR HRs (95% C.I.) [1, 13]: 0.43 (0.39-0.47)
- Crude HR HRs (95% C.I.) [1, 14]: 0.43 (0.39-0.48)
- Crude HR HRs (95% C.I.) [1, 15]: 0.42 (0.38-0.47)
- Crude HR HRs (95% C.I.) [1, 16]: 0.73 (0.66-0.80)
- Crude HR HRs (95% C.I.) [2, 13]: 0.62 (0.51-0.75)
- Crude HR HRs (95% C.I.) [2, 14]: 0.63 (0.51-0.77)
- Crude HR HRs (95% C.I.) [2, 15]: 0.71 (0.57-0.88)
- Crude HR HRs (95% C.I.) [2, 16]: 0.77 (0.65-0.93)
- Crude HR HRs (95% C.I.) [3, 13]: 0.54 (0.50-0.59)
- Crude HR HRs (95% C.I.) [3, 14]: 0.53 (0.48-0.57)
- Crude HR HRs (95% C.I.) [3, 15]: 0.50 (0.46-0.55)
- Crude HR HRs (95% C.I.) [3, 16]: 0.91 (0.83-0.99)
- Crude HR HRs (95% C.I.) [4, 13]: 0.50 (0.46-0.55)
- Crude HR HRs (95% C.I.) [4, 14]: 0.51 (0.46-0.56)
- Crude HR HRs (95% C.I.) [4, 15]: 0.46 (0.42-0.51)
- Crude HR HRs (95% C.I.) [4, 16]: 1.00 (0.89-1.11)
- Crude HR HRs (95% C.I.) [5, 13]: 0.54 (0.50-0.59)
- Crude HR HRs (95% C.I.) [5, 14]: 0.55 (0.50-0.60)
- Crude HR HRs (95% C.I.) [5, 15]: 0.55 (0.50-0.61)
- Crude HR HRs (95% C.I.) [5, 16]: 0.82 (0.75-0.90)
- Proportion of cell distribution in cell cycle (%) M1: ([6]; 1.5625 μM Amlodipine, 48 hrs): 5.34%
- Proportion of cell distribution in cell cycle (%) M2: ([6]; 1.5625 μM Amlodipine, 48 hrs): 74.88%
- Proportion of cell distribution in cell cycle (%) M3: ([6]; 1.5625 μM Amlodipine, 48 hrs): 7.06%
- Proportion of cell distribution in cell cycle (%) M4: ([6]; 1.5625 μM Amlodipine, 48 hrs): 12.82%
- Proportion of cell distribution in cell cycle (%) M1: ([6]; 3.125 μM Amlodipine, 48 hrs): 6.51%
- Proportion of cell distribution in cell cycle (%) M2: ([6]; 3.125 μM Amlodipine, 48 hrs): 73.83%
- Proportion of cell distribution in cell cycle (%) M3: ([6]; 3.125 μM Amlodipine, 48 hrs): 6.63%
- Proportion of cell distribution in cell cycle (%) M4: ([6]; 3.125 μM Amlodipine, 48 hrs): 13.17%
- Proportion of cell distribution in cell cycle (%) M1: ([6]; 6.25 μM Amlodipine, 48 hrs): 6.48%
- Proportion of cell distribution in cell cycle (%) M2: ([6]; 6.25 μM Amlodipine, 48 hrs): 72.91%
- Proportion of cell distribution in cell cycle (%) M3: ([6]; 6.25 μM Amlodipine, 48 hrs): 6.74%
- Proportion of cell distribution in cell cycle (%) M4: ([6]; 6.25 μM Amlodipine, 48 hrs): 13.93%
- Proportion of cell distribution in cell cycle (%) M1: ([6]; 12.5 μM Amlodipine, 48 hrs): 16.96%
- Proportion of cell distribution in cell cycle (%) M2: ([6]; 12.5 μM Amlodipine, 48 hrs): 67.77%
- Proportion of cell distribution in cell cycle (%) M3: ([6]; 12.5 μM Amlodipine, 48 hrs): 6.58%
- Proportion of cell distribution in cell cycle (%) M4: ([6]; 12.5 μM Amlodipine, 48 hrs): 8.83%
- Proportion of cell distribution in cell cycle (%) M1: [6, 17]: 24.89%
- Proportion of cell distribution in cell cycle (%) M2: [6, 17]: 62.89%
- Proportion of cell distribution in cell cycle (%) M3: [6, 17]: 4.22%
- Proportion of cell distribution in cell cycle (%) M4: [6, 17]: 8.08%
- Proportion of cell distribution in cell cycle (%) M1: [6, 18]: 30.77%
- Proportion of cell distribution in cell cycle (%) M2: [6, 18]: 56.25%
- Proportion of cell distribution in cell cycle (%) M3: [6, 18]: 5.46%
- Proportion of cell distribution in cell cycle (%) M4: [6, 18]: 7.55%
- Proportion of cell distribution in cell cycle (%) M1: [6, 19]: 39.90%
- Proportion of cell distribution in cell cycle (%) M2: [6, 19]: 47.73%
- Proportion of cell distribution in cell cycle (%) M3: [6, 19]: 5.03%
- Proportion of cell distribution in cell cycle (%) M4: [6, 19]: 7.47%
- Proportion of cell distribution in cell cycle (%) M1: [6, 20]: 56.61%
- Proportion of cell distribution in cell cycle (%) M2: [6, 20]: 29.59%
- Proportion of cell distribution in cell cycle (%) M3: [6, 20]: 7.08%
- Proportion of cell distribution in cell cycle (%) M4: [6, 20]: 6.82%
- cell division (cell cycle, in words) ([6]; 12.5 μM or more, 48 hrs): most cells were unable to undergo cell division
- Proportion of cell distribution in cell cycle (%) M1: ([6]; 25 μM Amlodipine, 48 hrs): 57.32%
- Proportion of cell distribution in cell cycle (%) M2: ([6]; 25 μM Amlodipine, 48 hrs): 28.75%
- Proportion of cell distribution in cell cycle (%) M3: ([6]; 25 μM Amlodipine, 48 hrs): 8.02%
- Proportion of cell distribution in cell cycle (%) M4: ([6]; 25 μM Amlodipine, 48 hrs): 6.10%
- Amlodipine concentration at which the best inhibitory effect on the growth of liver cancer cells is achieved [7]: greater than or equal to 12.5 μM
- cell viability of liver cancer cells treated with Amlodipine ([7]; 1.5625-50 μM, 48 and 72 hrs, FIGS. 9, 11, 12): decreased
- intracellular expression of apoptotic proteins (Western blotting) [8]: results in the intracellular expression of apoptotic proteins
- fluorescence intensity (cell metastasis) vs cells not treated with Amlodipine [9]: lower
- fluorescence intensity (cell metastasis) vs cells not treated with Amlodipine [10]: lower
- cell invasion (crystal violet staining) [11]: lower
- fluorescence intensity (cell invasion) vs cells not treated with Amlodipine [12]: lower

— patent US10688086B2, “Method for treating cancer with dihydropyridine calcium antagonist” (GERMARK BIOTECHNOLOGY CO., LTD, priority 2016, dated 2020)
